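Grown in 96-well plates, cells were treated for 48 hours with each compound at five concentrations. Insufficient inhibition: endpoint recorded as highest concentration tested. At the GI50, growth is halved. TGI is the concentration that stops growth completely.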

Common to all, as to experiment: growth of human tumour cells (NCI), 48 h
For assay [1], the system named is A498 renal.
In assay [2] the test system is COLO 205 colon.
The test system of assay [3] is UACC-257 melanoma.
Assay [4] concerns MCF7 breast.
Assay [5] concerns HOP-62 NSCLC.
The test system of assay [6] is MOLT-4 leukemia.
Assay [7] concerns SF-295 CNS.
In assay [8] the test system is M14 melanoma.
Assay [9] relates to SF-268 CNS.
Assay [10] has as its system SR leukemia.

For `COc1ccc2cc(-c3c(-c4ccncc4)nc(-c4ccc(S(C)=O)cc4)n3C)ccc2c1` (stereo not drawn), the GI50 in assay [1] was more than 7.37 µM; in [2], 17 µM; in assay [3] it was more than 25 µM; in [4], more than 19.6 µM; in [5], more than 21.1 µM; in assay [6] it was 17.2 µM. In addition, the GI50 in assay [7] is more than 22.4 µM; in assay [8], more than 25 µM; in assay [9] it was more than 25 µM; in assay [10], more than 25 µM. The TGI in assay [1], in assay [2], in assay [3], in assay [4], in [5] and in assay [6] was more than 25 µM in each case. In addition, the TGI in [7], in assay [8], in assay [9] and in [10] was more than 25 µM in each case.
Regarding `CN1CCC(n2cnc(-c3ccc(F)cc3)c2-c2ccnc(N)n2)CC1`, the GI50 was 5.85 µM in [1]; 7.07 µM in assay [2]; 11.7 µM in [3]; 1.32 µM in assay [4]; 9.44 µM in [5]; 12.6 µM in assay [6]. Moreover, the GI50 in assay [7] was 9.36 µM; in assay [8] it was 11.7 µM; in assay [9] it was 10.4 µM; in [10], 10.4 µM. The TGI was more than 23.5 µM in assay [1]; more than 25 µM in [2]; more than 25 µM in assay [3]; more than 25 µM in assay [4]; more than 25 µM in [5]; more than 25 µM in [6]. Moreover, the TGI in assay [7], in assay [8], in assay [9] and in [10] was more than 25 µM throughout.
As for `N/N=C1\CC(=O)NC(=O)N1`, the TGI in [1], in [2], in assay [3], in assay [4], in [5] and in [6] was more than 100 µM throughout. For the same compound, the TGI in assay [7], in assay [8], in assay [9] and in [10] was more than 100 µM throughout.
As for `C#CCOc1cccc(Nc2ncnc3c(NC(=O)CCl)cccc23)c1`, the GI50 is more than 100 µM in assay [1]; 18.7 µM in assay [2]; 45 µM in [3]; 14.5 µM in assay [4]; 25.8 µM in assay [5]; 14.4 µM in [6]. Moreover, the GI50 is 17.4 µM in [7], 18.2 µM in assay [8], 15.7 µM in [9] and 6.06 µM in assay [10]. Further, the TGI was more than 100 µM in [1]; 38.4 µM in [2]; more than 100 µM in [3]; 48.3 µM in assay [4]; 86.3 µM in assay [5]; 71.1 µM in assay [6]. Besides, the TGI was found to be 34.5 µM in assay [7], 54.5 µM in assay [8], 36.4 µM in assay [9] and 31.7 µM in [10].
Take `Cc1c(C2=C(c3cn(C)c4ccccc34)C(=O)NC2=O)c2ccccc2n1C`: the GI50 in [1] was 1.91 µM; in [2], 1.51 µM; in assay [3], more than 25 µM; in assay [4], 0.997 µM; in assay [5], 2.72 µM; in assay [6], 2.18 µM. For the same compound, the GI50 was 1.16 µM in assay [7], 1.5 µM in [8], 4.82 µM in assay [9] and 1.18 µM in assay [10]. In addition, the TGI in [1] was 11.2 µM; in [2] it was more than 25 µM; in assay [3] it was more than 25 µM; in [4] it was more than 25 µM; in [5] it was more than 25 µM; in assay [6] it was more than 25 µM. Moreover, the TGI in assay [7], in [8], in assay [9] and in assay [10] was more than 25 µM each time.
As to `O=C(O)COc1c(Cl)cc(Cl)c2cccnc12`, the TGI in assay [1], in assay [2], in [3], in assay [4], in assay [5] and in assay [6] was more than 100 µM throughout. Besides, the TGI in assay [7], in assay [8], in [9] and in assay [10] was more than 100 µM throughout.
For the compound `CCN1C(=O)N(CC)C2C1NN=c1s/c(=C3\C(=O)N(CCc4ccccc4)c4ccccc43)c(=O)n12` (stereo not drawn), the GI50 was 0.115 µM in assay [1]; 0.322 µM in assay [2]; 3.77 µM in assay [3]; 0.353 µM in [4]; 0.697 µM in assay [5]; 1.49 µM in assay [6]. Further, the GI50 in assay [7] is 0.363 µM; in [8], 0.478 µM; in assay [9], 1.95 µM; in [10] it was 0.461 µM. In addition, the TGI is 0.603 µM in [1]; 1.8 µM in assay [2]; more than 100 µM in assay [3]; more than 67.7 µM in assay [4]; 9.97 µM in assay [5]; more than 100 µM in assay [6]. Besides, the TGI in [7] is 7.75 µM; in assay [8], 12.5 µM; in assay [9], 27.4 µM; in assay [10], more than 36.2 µM.
On to `Cn1cncc1CC1COC(=O)C1C(O)c1ccccc1` (stereo not drawn), for which the TGI in assay [1], in [2], in [3], in assay [4], in [5] and in [6] was more than 100 µM each time. Moreover, the TGI in [7], in assay [8], in assay [9] and in assay [10] was more than 100 µM throughout.
`Cn1cc(-c2nonc2-c2cn(C)c3ccccc23)c2ccccc21`: the GI50 in assay [1] is 0.337 µM; in assay [2] it was 2.54 µM; in assay [3] it was 50.4 µM; in [4] it was 0.591 µM; in assay [5], 1.25 µM; in assay [6], 1.72 µM. Further, the GI50 is 0.42 µM in assay [7], 0.469 µM in [8], 1.6 µM in assay [9] and 0.406 µM in [10]. The TGI in assay [2] was more than 100 µM; in assay [3], more than 100 µM; in [4], more than 100 µM; in assay [5], more than 72.7 µM; in assay [6], more than 100 µM; in [7], more than 100 µM. Further, the TGI in [8], in [9] and in [10] was more than 100 µM throughout.
On to `N#Cc1c(N)[nH]c2ccc(Sc3ccccc3)cc12`, for which the TGI was 2.04 µM in assay [1]; 1.34 µM in [2]; 29.5 µM in assay [3]; 16.6 µM in assay [4]; 20.5 µM in [5]; 11.2 µM in assay [6]. Further, the TGI in assay [7] is 4.96 µM; in assay [8] it was 3.5 µM; in assay [9] it was 15.4 µM; in [10] it was 6.25 µM.
Consider `c1ccc2c3c([nH]c2c1)C1CCCN1CC3` (stereo not drawn), for which the TGI in assay [1], in assay [2], in [3], in assay [4], in [5] and in assay [6] was more than 10 µM throughout. Moreover, the TGI in assay [7], in assay [8], in assay [9] and in assay [10] was more than 10 µM in each case.
As to `C[C@@H]1O[C@@H](O[C@H]2CC[C@@]3(C)[C@H](CCC4[C@@H]3C(O)C[C@]3(C)[C@@H](c5ccc(=O)oc5)CC[C@]43O)C2)[C@H](O)[C@H](O)[C@H]1O` (stereo partly drawn), the GI50 in assay [1] is 0.00859 µM; in assay [2], 0.00664 µM; in [3], 0.00589 µM; in assay [4], 0.00828 µM; in [5], 0.00389 µM; in [6], less than 0.00325 µM. Further, the GI50 in assay [7] was 0.00664 µM; in assay [8], 0.00609 µM; in assay [9], less than 0.00325 µM; in assay [10], 0.00388 µM. Besides, the TGI in [1] came out at 0.0357 µM; in assay [2] it was 0.013 µM; in assay [3] it was 0.0121 µM; in assay [4], 0.0659 µM; in [5], 0.0057 µM; in assay [7], 0.0291 µM. Besides, the TGI in [8] came to 0.0148 µM; in assay [9] it was 0.00502 µM; in assay [10], 0.0109 µM.
Take `CC1(C)CCC[C@]2(C)[C@@H](C=O)C(C=O)=CC[C@@H]12`: the TGI in assay [1] was more than 100 µM; in assay [2] it was 36.5 µM; in [3], 31.5 µM; in [4], 31 µM; in assay [5], more than 100 µM; in assay [6], 30.5 µM. Besides, the TGI in assay [7] is 75.1 µM; in assay [8], 33.7 µM; in [9], 55.8 µM; in [10], 44.5 µM.
As for `COC12c3ccccc3-c3ccccc3C1[C@H]1C(=O)OC(=O)[C@H]12` (stereo partly drawn), the TGI in [1], in [2], in assay [3], in assay [4], in [5] and in [6] was more than 10 µM each time. Moreover, the TGI in assay [7], in assay [8], in assay [9] and in [10] was more than 10 µM in each case.

The values are drawn from PubChem BioAssay (NCI).
